# Test: TGA of PFD weight loss from coated aerogel, uncoated aerogel and pure PFD
# Type: physicochemical
# Settings: held at 37° C. for 60 minutes, aerogel-free basis
smiles,measurement,value
"FC1(F)C(F)(F)C(F)(F)C2(F)C(F)(F)C(F)(F)C(F)(F)C(F)(F)C2(F)C1(F)F (stereo not shown) [pure PFD, perfluorodecalin]",loss of available PFD,100%

# Reference: patent US20160228380A1, “IMPREGNANATION OF OXYGEN CARRIER COMPOUNDS INTO CARRIER MATERIALS PROVIDING COMPOSITIONS AND METHODS FOR THE TREATMENT OF WOUNDS AND BURNS” (VIRGINIA COMMONWEALTH UNIVERSITY, priority 2013, published 2016)
